“And” between values parts separate entries of the source, which are not always exact repeats. Equal values may be shown once. Inconclusive results and toxic doses are left out.
System: P388 leukemia ip, CD2F1 mice, survival T/C
Test: NCI In Vivo Anticancer Drug Screen. Data for tumor model P388 Leukemia (intraperitoneal) in CD2F1 (CDF1) mice
Conditions: endpoint: median survival time, higher = longer survival
Outline: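 Mice carrying the transplanted tumor received test compound or vehicle. Survival was recorded in each group, and the value is the treated-group measurement divided by that of the vehicle-treated control group.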

[1] = dose: 100.0 mg/kg/injection, schedule: Q04DX003 (ip), vehicle: saline with Tween-80
[2] = dose: 50.0 mg/kg/injection, schedule: Q01DX009 (ip), vehicle: Klucel (hydroxypropylcellulose) (HPC)
[3] = dose: 60.0 mg/kg/injection, schedule: Q01DX005 (ip), vehicle: saline with Tween-80
[4] = dose: 120.0 mg/kg/injection, schedule: Q01DX005 (ip), vehicle: saline with Tween-80
[5] = dose: 100.0 mg/kg/injection, schedule: Q01DX009 (ip), vehicle: saline with Tween-80
[6] = dose: 200.0 mg/kg/injection, schedule: Q01DX009 (ip), vehicle: saline with Tween-80
[7] = dose: 50.0 mg/kg/injection, schedule: Q01DX005 (ip), vehicle: saline with Tween-80
[8] = dose: 100.0 mg/kg/injection, schedule: Q01DX005 (ip), vehicle: saline with Tween-80
[9] = dose: 200.0 mg/kg/injection, schedule: Q01DX005 (ip), vehicle: saline with Tween-80
[10] = dose: 50.0 mg/kg/injection, schedule: Q01DX009 (ip), vehicle: saline with Tween-80
[11] = dose: 240.0 mg/kg/injection, schedule: Q01DX005 (ip), vehicle: saline with Tween-80
[12] = dose: 100.0 mg/kg/injection, schedule: Q01DX009 (ip), vehicle: Klucel (hydroxypropylcellulose) (HPC)
[13] = dose: 200.0 mg/kg/injection, schedule: Q01DX009 (ip), vehicle: Klucel (hydroxypropylcellulose) (HPC)
[14] = dose: 12.5 mg/kg/injection, schedule: Q04DX003 (ip), vehicle: saline
[15] = dose: 25.0 mg/kg/injection, schedule: Q04DX003 (ip), vehicle: saline
[16] = dose: 200.0 mg/kg/injection, schedule: Q04DX003 (ip), vehicle: saline with Tween-80
[17] = dose: 400.0 mg/kg/injection, schedule: Q04DX003 (ip), vehicle: saline with Tween-80
[18] = dose: 200.0 mg/kg/injection, schedule: Q01DX005 (ip), vehicle: Klucel (hydroxypropylcellulose) (HPC)

`NS(=O)(=O)c1cc([N+](=O)[O-])sc1SSc1sc([N+](=O)[O-])cc1S(N)(=O)=O` was tested, and the T/C (dose: 6.25 mg/kg/injection, schedule: Q01DX001 (ip), vehicle: saline with Tween-80) was 99 % of control, the T/C (dose: 12.5 mg/kg/injection, schedule: Q01DX001 (ip), vehicle: saline with Tween-80) was 104 % of control and the T/C (dose: 25.0 mg/kg/injection, schedule: Q01DX001 (ip), vehicle: saline with Tween-80) was 100 % of control.

In the case of `O=C(O)C(=O)O.[Mn]`, the T/C [1] is reported as 86 % of control.

In the case of `CN1P(=N)(N)N=P(c2ccccc2)(c2ccccc2)N=P1(c1ccccc1)c1ccccc1` (stereo unspecified), the T/C (dose: 12.5 mg/kg/injection, schedule: Q01DX009 (ip), vehicle: Klucel (hydroxypropylcellulose) (HPC)) is reported as 99 % of control and 113 % of control and 121 % of control, the T/C (dose: 25.0 mg/kg/injection, schedule: Q01DX009 (ip), vehicle: Klucel (hydroxypropylcellulose) (HPC)) is reported as 108 % of control and 115 % of control and 93 % of control and the T/C [2] is reported as 123 % of control and 88 % of control.

For `COC(=O)c1cccc2cccc(C(=O)N(C)CCN(C)C)c12`, the T/C [3] was 97 % of control and the T/C [4] was 95 % of control.

In the case of `CC(C)[c-]1[c-][c-][c-][c-]1.CC(C)[c-]1[c-][c-][c-][c-]1.[Cl][Zr][Cl]`, the T/C (dose: 3.12 mg/kg/injection, schedule: Q01DX009 (ip), vehicle: saline with Tween-80) is reported as 112 % of control, the T/C (dose: 6.25 mg/kg/injection, schedule: Q01DX009 (ip), vehicle: saline with Tween-80) is reported as 119 % of control and the T/C (dose: 12.5 mg/kg/injection, schedule: Q01DX009 (ip), vehicle: saline with Tween-80) is reported as 117 % of control.

`CC(=Nc1ccccc1)c1ccc2ccccc2c1` was tested, and the T/C [5] was 95 % of control, the T/C [6] was 90 % of control and the T/C (dose: 400.0 mg/kg/injection, schedule: Q01DX009 (ip), vehicle: saline with Tween-80) was 90 % of control.

`Oc1ccc(N=C2N=c3c(c4ccccc4c4ccccc34)=N2)c2ccccc12` was tested, and the T/C (dose: 25.0 mg/kg/injection, schedule: Q01DX005 (ip), vehicle: saline with Tween-80) was 98 % of control, the T/C [7] was 100 % of control and the T/C [8] was 100 % of control. For the same compound, the T/C [9] was 107 % of control.

In the case of `O=C1CCNC(=O)N1CN1CCc2ccccc2C1`, the T/C (dose: 60.0 mg/kg/injection, schedule: Q01DX005 (ip), vehicle: Klucel (hydroxypropylcellulose) (HPC)) is reported as 108 % of control, the T/C (dose: 120.0 mg/kg/injection, schedule: Q01DX005 (ip), vehicle: Klucel (hydroxypropylcellulose) (HPC)) is reported as 99 % of control and the T/C (dose: 240.0 mg/kg/injection, schedule: Q01DX005 (ip), vehicle: Klucel (hydroxypropylcellulose) (HPC)) is reported as 108 % of control.

In the case of `O=C(Nc1cccc(Cl)c1Cl)OCCCc1ccncc1`, the T/C [10] is reported as 100 % of control and the T/C [5] is reported as 100 % of control.

For `O=C(O)c1c(C(=O)O)c2cccn2c2c1cnn2-c1ccccc1`, the T/C [3] was 102 % of control, the T/C [4] was 100 % of control and the T/C [11] was 100 % of control.

For `COC(=O)c1cc(Cl)ccc1NCC(N)c1ccccc1` (stereo unspecified), the T/C (dose: 30.0 mg/kg/injection, schedule: Q01DX005 (ip), vehicle: saline with Tween-80) was 99 % of control and the T/C [3] was 101 % of control and 97 % of control.

In the case of `COC1=CC(=O)c2c(O)c3c(c(O)c2C1=O)OC1(Oc2c(cc4cc(C)oc(=O)c4c2O)CC1O)C3O` (stereo unspecified), the T/C (dose: 3.0 mg/kg/injection, schedule: Q01DX009 (ip), vehicle: Klucel (hydroxypropylcellulose) (HPC)) is reported as 100 % of control, the T/C (dose: 6.0 mg/kg/injection, schedule: Q01DX009 (ip), vehicle: Klucel (hydroxypropylcellulose) (HPC)) is reported as 117 % of control and the T/C (dose: 12.0 mg/kg/injection, schedule: Q01DX009 (ip), vehicle: Klucel (hydroxypropylcellulose) (HPC)) is reported as 99 % of control. For the same compound, the T/C (dose: 24.0 mg/kg/injection, schedule: Q01DX009 (ip), vehicle: Klucel (hydroxypropylcellulose) (HPC)) was 99 % of control.

`N#Cc1nc2ccccc2n1OCc1ccccc1` was tested, and the T/C [2] was 97 % of control, the T/C [12] was 107 % of control and the T/C [13] was 102 % of control.

With `CCN1CCC(C2(C(=O)OC)c3ccccc3-c3ccccc32)C1` (stereo unspecified) the T/C (dose: 6.25 mg/kg/injection, schedule: Q04DX003 (ip), vehicle: saline) was 106 % of control, the T/C [14] was 108 % of control and the T/C [15] was 103 % of control. The T/C (dose: 100.0 mg/kg/injection, schedule: Q04DX003 (ip), vehicle: saline) was 104 % of control.

With `O=C1NCCN1C(=O)Nc1ccc(Cl)c(Cl)c1` the T/C [2] was 116 % of control, the T/C [12] was 108 % of control and the T/C [13] was 110 % of control.

With `COc1ccc(-c2cc(=O)c3c(O)cc(OC)cc3o2)cc1` the T/C [1] was 95 % of control, the T/C [16] was 90 % of control and the T/C [17] was 90 % of control.

`N=C(N)c1ccc(NC(=O)c2cc3ccc(C(=N)N)cc3o2)cc1` was tested, and the T/C [14] was 101 % of control, the T/C [15] was 101 % of control and the T/C (dose: 50.0 mg/kg/injection, schedule: Q04DX003 (ip), vehicle: saline) was 102 % of control.

In the case of `CCOc1ccc(C(CC)c2cc3c(cc2OCC)OCO3)cc1` (stereo unspecified), the T/C [3] is reported as 100 % of control, the T/C [4] is reported as 111 % of control and the T/C [11] is reported as 110 % of control.

For `O=c1[nH]c(=S)[nH]nc1/C=C/C=C/c1ccccc1`, the T/C (dose: 100.0 mg/kg/injection, schedule: Q01DX001 (ip), vehicle: saline) was 96 % of control, the T/C (dose: 200.0 mg/kg/injection, schedule: Q01DX001 (ip), vehicle: saline) was 97 % of control and the T/C (dose: 400.0 mg/kg/injection, schedule: Q01DX001 (ip), vehicle: saline) was 105 % of control.

`CC1=C(c2ccccc2)OC(=O)C(Cl)(Cl)C1N(c1ccccc1)c1ccccc1` (stereo unspecified) was tested, and the T/C [7] was 88 % of control, the T/C [8] was 93 % of control and the T/C [9] was 93 % of control.

`COn1nnc2ccc(N)cc21` was tested, and the T/C (dose: 100.0 mg/kg/injection, schedule: Q04DX002 (ip), vehicle: saline) was 99 % of control and the T/C (dose: 200.0 mg/kg/injection, schedule: Q04DX002 (ip), vehicle: saline) was 102 % of control.

With `O=C(Nc1ccccc1)OC(CN1CCCCC1)C(CN1CCCCC1)OC(=O)Nc1ccccc1` (stereo unspecified) the T/C (dose: 12.5 mg/kg/injection, schedule: Q01DX005 (ip), vehicle: Klucel (hydroxypropylcellulose) (HPC)) was 99 % of control, the T/C (dose: 25.0 mg/kg/injection, schedule: Q01DX005 (ip), vehicle: Klucel (hydroxypropylcellulose) (HPC)) was 91 % of control and the T/C [18] was 87 % of control.

`COc1cc2oc(=O)cc(C)c2cc1N` was tested, and the T/C (dose: 50.0 mg/kg/injection, schedule: Q04DX002 (ip), vehicle: suspension in saline) was 109 % of control, the T/C (dose: 100.0 mg/kg/injection, schedule: Q04DX002 (ip), vehicle: suspension in saline) was 99 % of control and the T/C (dose: 200.0 mg/kg/injection, schedule: Q04DX002 (ip), vehicle: suspension in saline) was 106 % of control.

For `O=C1SC/C(=N\N=C2/CSC(=O)N2Cc2ccccc2)N1Cc1ccccc1`, the T/C (dose: 50.0 mg/kg/injection, schedule: Q01DX005 (ip), vehicle: Klucel (hydroxypropylcellulose) (HPC)) was 87 % of control, the T/C (dose: 100.0 mg/kg/injection, schedule: Q01DX005 (ip), vehicle: Klucel (hydroxypropylcellulose) (HPC)) was 93 % of control and the T/C [18] was 88 % of control.

`Cc1ccc(N=NC2=C3Sc4ccccc4N=C2N(c2ccc(Br)cc2)C(=S)N3c2ccc(Cl)cc2)cc1` was tested, and the T/C [7] was 102 % of control, the T/C [8] was 90 % of control and the T/C [9] was 88 % of control.

With `NC(=O)c1cccnc1` the T/C [10] was 106 % of control, the T/C [5] was 110 % of control and the T/C [6] was 97 % of control. For the same compound, the T/C (dose: 250.0 mg/kg/injection, schedule: Q01DX009 (sc), vehicle: saline) was 102 % of control and the T/C (dose: 500.0 mg/kg/injection, schedule: Q01DX009 (sc), vehicle: saline) was 105 % of control.

With `Cc1nn(C(=O)c2ccncc2)c(C)c1N=Nc1ccccc1Cl` the T/C (dose: 100.0 mg/kg/injection, schedule: Q04DX003 (ip), vehicle: Klucel (hydroxypropylcellulose) (HPC)) was 96 % of control, the T/C (dose: 200.0 mg/kg/injection, schedule: Q04DX003 (ip), vehicle: Klucel (hydroxypropylcellulose) (HPC)) was 95 % of control and the T/C (dose: 400.0 mg/kg/injection, schedule: Q04DX003 (ip), vehicle: Klucel (hydroxypropylcellulose) (HPC)) was 97 % of control.

In the case of `Cc1c2cc(Cl)ccc2c(CSC(=N)N)c2ccc3ccccc3c12`, the T/C (dose: 50.0 mg/kg/injection, schedule: Q04DX002 (ip), vehicle: Klucel (hydroxypropylcellulose) (HPC)) is reported as 100 % of control, the T/C (dose: 100.0 mg/kg/injection, schedule: Q04DX002 (ip), vehicle: Klucel (hydroxypropylcellulose) (HPC)) is reported as 102 % of control and the T/C (dose: 200.0 mg/kg/injection, schedule: Q04DX002 (ip), vehicle: Klucel (hydroxypropylcellulose) (HPC)) is reported as 107 % of control.

With `CCCCCCCC/C=C\CCCCCCCCN1CN=C(N)N(C#N)C1` the T/C [1] was 101 % of control, the T/C [16] was 100 % of control and the T/C [17] was 103 % of control.
